From patent publication US20100048597A1 (Novartis AG, priority 2006, published 2010)
Where two headings read alike, the source gives them in different places.

How the values were obtained:
[1] = molecular target: T1, CDK2/cyclinA (Homo sapiens, UniProt P24941); assay: CDK2/cyclinA kinase assay, IMAP fluorescence polarization; assay type: biochemical
T1 construct: purchased Millipore
Protocol: (§1) Kinase assays were performed on recombinant purified enzymes using the non-radioactive IMAP fluorescence polarization assay format.
(§2) Compound stocks were prepared and diluted in DMSO and were added to kinase reactions at a 1/100 dilution for a final concentration of 1% DMSO. The components were added together to final concentrations listed in the tables below and incubated for two hours at room temperature.
(§3) The reactions were stopped by addition of stop solution.
CDK2: final stop concentration is 1× Developer buffer (100% A), IMAP beads 1/400
(§4) The samples were allowed to incubate for one more hour at room temperature and then the fluorescence polarization was measured. The plate normalized millipolarization (mP) values were plotted against the log of compound concentration for each compound and IC50 values were calculated using the spotfire IC50 calculator and confirmed by visual analysis.

[2] = molecular target: CDK5 (Homo sapiens, UniProt Q00535); assay: CDK5 kinase assay (Table F); assay type: biochemical
[3] = molecular target: T2, CDK9/cyclinT1 (Homo sapiens, UniProt P50750); assay: CDK9/cyclinT1 kinase assay, IMAP fluorescence polarization; assay type: biochemical
T2 construct: purchased Millipore
Protocol: as §1, §2, §3
CDK9/CDK1/CDK7: final stop concentration is 1× Developer buffer (85% A/15% B), IMAP beads 1/400
as §4

[4] = molecular target: CDK4 (Homo sapiens, UniProt P11802); assay: CDK4 kinase assay (Table F); assay type: biochemical
[5] = molecular target: T3, CDK1/cyclinB (Homo sapiens, UniProt P06493); assay: CDK1/cyclinB kinase assay, IMAP fluorescence polarization; assay type: biochemical
T3 construct: purchased Millipore
Protocol: as §1, §2, §3
The samples were allowed to incubate for one more hour at room temperature and then the fluorescence polarization was measured.

[6] = test system: RNA Polymerase II CTD Serine2 Phosphorylation; assay: H5 (Ser2) Ab High Content Screen: RNA Polymerase II CTD Serine2 Phosphorylation Assay in Hep3B cells; assay type: cell-based; conditions: Homo sapiens, 2 hours with compound, H5 antibody staining
Protocol: H5 (also referred as Ser2) Ab High Content Screen: RNA Polymerase II CTD Serine2 Phosphorylation Assay
1. Cells are plated into 384 well plates: 30 μl of Hep3B cells (4,000 cells/30 μl) in DMEM with 3% FBS are plated into wells of a tissue culture treated clear bottomed 384 well plate. Cells are allowed to adhere during an overnight incubation.
2. Cells are treated with compounds for two hours: 10 μl of DMEM with 3% FBS is added to each well with a final concentration of DMSO equal to 1%. Cells are incubated with compounds for 2 hours.
3. Cells are fixed and permeabilized. Cells are washed with 30 mM HEPES pH=7.3 then fixed in 4% paraformaldehyde in 30 mM HEPES pH=7.3 for one hour at room temperature. The fix is removed by washing the cells with Tris buffered saline (TBS) and the cells are permeabilized by incubation in TBS with 0.5% triton X-100 for 30 minutes at room temperature. Triton is removed by washing the cells with TBS.
4. […] Incubate primary H5 Ab (1/250 ) overnight at 4 degrees in TBS with 1% BSA and 0.1% Tween-20. The next day wash cells with TBS. […] Wash cells with PBS.
5. Measure staining using the In-cell Analyzer system from GE Healthcare.

T3 sequence (P06493 whole entry): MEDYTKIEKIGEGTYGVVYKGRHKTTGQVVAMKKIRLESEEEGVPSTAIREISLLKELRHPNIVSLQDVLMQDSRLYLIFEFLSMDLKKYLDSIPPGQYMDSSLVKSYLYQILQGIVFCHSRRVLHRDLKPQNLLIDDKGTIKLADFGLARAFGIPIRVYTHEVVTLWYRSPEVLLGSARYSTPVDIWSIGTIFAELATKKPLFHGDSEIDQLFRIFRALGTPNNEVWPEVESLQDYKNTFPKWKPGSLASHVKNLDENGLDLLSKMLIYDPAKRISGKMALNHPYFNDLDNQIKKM
T3 sequence (P14635 whole entry partner): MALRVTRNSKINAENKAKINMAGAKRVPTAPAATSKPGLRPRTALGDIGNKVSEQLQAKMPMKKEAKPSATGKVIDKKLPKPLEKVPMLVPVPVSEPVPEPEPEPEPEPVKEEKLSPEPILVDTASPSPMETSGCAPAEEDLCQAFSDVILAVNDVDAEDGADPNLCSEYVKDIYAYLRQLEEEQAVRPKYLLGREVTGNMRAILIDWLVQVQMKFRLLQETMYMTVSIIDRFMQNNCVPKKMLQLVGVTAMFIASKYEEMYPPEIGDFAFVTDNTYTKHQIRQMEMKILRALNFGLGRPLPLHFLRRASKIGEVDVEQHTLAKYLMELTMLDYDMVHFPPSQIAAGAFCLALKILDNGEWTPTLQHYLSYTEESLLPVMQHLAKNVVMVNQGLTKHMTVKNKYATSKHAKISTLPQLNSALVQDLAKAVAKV
CDK4, sequence (P11802 whole entry, species assumed): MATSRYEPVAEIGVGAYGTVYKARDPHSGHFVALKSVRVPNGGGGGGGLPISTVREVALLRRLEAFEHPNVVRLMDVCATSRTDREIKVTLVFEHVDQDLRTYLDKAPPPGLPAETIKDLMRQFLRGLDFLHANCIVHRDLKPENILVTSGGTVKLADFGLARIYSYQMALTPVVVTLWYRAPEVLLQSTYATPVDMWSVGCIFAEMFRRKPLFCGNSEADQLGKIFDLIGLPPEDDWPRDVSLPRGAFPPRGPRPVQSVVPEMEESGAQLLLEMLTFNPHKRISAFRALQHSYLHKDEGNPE
CDK4, sequence (P24385 whole entry partner, species assumed): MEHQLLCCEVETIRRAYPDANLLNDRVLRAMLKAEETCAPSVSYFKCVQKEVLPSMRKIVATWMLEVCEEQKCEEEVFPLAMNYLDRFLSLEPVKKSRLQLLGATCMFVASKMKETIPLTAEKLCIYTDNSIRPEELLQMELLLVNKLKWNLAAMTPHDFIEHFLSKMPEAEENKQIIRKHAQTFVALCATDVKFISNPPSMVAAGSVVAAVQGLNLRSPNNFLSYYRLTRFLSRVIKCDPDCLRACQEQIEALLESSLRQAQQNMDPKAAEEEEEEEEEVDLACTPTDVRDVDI
T2 sequence (P50750 whole entry): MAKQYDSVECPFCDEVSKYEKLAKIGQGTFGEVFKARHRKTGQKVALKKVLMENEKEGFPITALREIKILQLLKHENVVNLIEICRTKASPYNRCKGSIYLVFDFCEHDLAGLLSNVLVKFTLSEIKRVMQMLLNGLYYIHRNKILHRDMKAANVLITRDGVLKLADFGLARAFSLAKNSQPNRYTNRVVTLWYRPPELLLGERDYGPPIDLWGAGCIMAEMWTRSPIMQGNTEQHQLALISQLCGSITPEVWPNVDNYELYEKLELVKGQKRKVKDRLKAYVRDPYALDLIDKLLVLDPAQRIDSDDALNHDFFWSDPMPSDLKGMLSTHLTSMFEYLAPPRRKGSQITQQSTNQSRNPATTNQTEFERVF
T2 sequence (O60563 whole entry partner): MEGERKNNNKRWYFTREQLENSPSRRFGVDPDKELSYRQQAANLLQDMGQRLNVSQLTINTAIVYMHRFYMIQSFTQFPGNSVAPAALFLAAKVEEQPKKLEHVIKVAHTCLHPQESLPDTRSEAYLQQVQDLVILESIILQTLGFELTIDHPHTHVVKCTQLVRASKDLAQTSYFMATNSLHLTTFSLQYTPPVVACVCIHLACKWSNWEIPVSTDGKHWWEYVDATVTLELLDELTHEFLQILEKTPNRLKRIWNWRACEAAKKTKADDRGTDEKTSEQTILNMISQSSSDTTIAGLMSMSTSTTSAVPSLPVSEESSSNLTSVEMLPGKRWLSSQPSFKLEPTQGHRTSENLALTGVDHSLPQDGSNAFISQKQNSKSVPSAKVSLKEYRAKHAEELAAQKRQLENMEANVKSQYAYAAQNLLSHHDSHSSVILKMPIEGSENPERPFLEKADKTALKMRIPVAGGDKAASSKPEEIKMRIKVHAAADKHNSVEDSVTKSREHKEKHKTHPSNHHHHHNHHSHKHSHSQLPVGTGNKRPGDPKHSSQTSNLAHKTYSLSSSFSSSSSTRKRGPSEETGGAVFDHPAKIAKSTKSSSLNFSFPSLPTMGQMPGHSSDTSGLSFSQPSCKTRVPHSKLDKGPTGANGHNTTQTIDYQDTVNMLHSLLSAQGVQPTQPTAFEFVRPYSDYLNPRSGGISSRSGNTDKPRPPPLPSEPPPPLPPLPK
CDK5, sequence (Q00535 whole entry, species assumed): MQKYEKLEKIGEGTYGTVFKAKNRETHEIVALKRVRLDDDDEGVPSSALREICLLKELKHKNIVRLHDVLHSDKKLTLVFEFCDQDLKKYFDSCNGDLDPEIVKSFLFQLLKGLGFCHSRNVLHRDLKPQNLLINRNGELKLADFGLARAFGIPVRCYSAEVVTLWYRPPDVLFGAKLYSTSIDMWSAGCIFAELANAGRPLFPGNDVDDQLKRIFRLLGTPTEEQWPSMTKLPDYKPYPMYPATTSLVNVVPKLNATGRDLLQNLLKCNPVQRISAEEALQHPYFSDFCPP
CDK5, sequence (Q15078 whole entry partner, species assumed): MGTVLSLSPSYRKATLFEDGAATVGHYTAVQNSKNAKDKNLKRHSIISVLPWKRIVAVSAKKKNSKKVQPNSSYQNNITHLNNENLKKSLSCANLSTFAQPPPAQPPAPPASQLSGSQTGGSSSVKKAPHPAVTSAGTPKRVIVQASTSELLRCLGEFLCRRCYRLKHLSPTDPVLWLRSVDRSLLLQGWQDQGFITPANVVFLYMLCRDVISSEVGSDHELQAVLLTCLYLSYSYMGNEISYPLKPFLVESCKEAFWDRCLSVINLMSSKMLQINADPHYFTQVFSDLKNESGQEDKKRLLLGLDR

Row | IC50 [1] [µM] | IC50 [2] [µM] | IC50 [3] [µM] | IC50 [4] [µM] | IC50 ([5]; read-out: CDK1 IC50) [µM] | IC50 [6] [µM] | SMILES | IC50 [5] [µM]
1 | 5 to 15 | 5 to 15 | < 5 | 15 to 50 | > 50 | – | CC(=O)NCCCNc1ncccc1-c1ccnc(Nc2cccc(S(C)(=O)=O)c2)n1 [Compound 67, N-(3-{3-[2-(3-Methanesulfonyl-phenylamino)-pyrimidin-4-yl]-pyridin-2-ylamino}-propyl)-acetamide] | –
2 | 15 to 50 | < 5 | < 5 | 15 to 50 | < 5 | – | NCCCOc1ncccc1-c1ccnc(Nc2cccc(Cl)c2)n1 [Compound 120, {4-[2-(3-Amino-propoxy)-pyridin-3-yl]-pyrimidin-2-yl}-(3-chloro-phenyl)-amine] | –
3 | < 5 | < 5 | < 5 | 15 to 50 | < 5 | – | Clc1cccc(Nc2nccc(-c3cccnc3NCCc3c[nH]cn3)n2)c1 [Compound 79] | –
4 | < 5 | < 5 | < 5 | 15 to 50 | < 5 | – | CC(=O)NCCCNc1ncccc1-c1ccnc(Nc2cccc(C#N)c2)n1 [Compound 69, N-(3-{3-[2-(3-Cyano-phenylamino)-pyrimidin-4-yl]-pyridin-2-ylamino}-propyl)-acetamide] | –
5 | < 5 | – | < 5 | – | 5 to 15 | 5 to 15 | Cc1c(-c2ccnc(Nc3cccc(Cl)c3)n2)ccnc1NCCCN1CCOCC1 [Compound 22, (3-Chloro-phenyl)-{4-[3-methyl-2-(3-morpholin-4-yl-propylamino)-pyridin-4-yl]-pyrimidin-2-yl}-amine] | –
6 | < 5 | – | < 5 | – | < 5 | < 5 | CC(=O)NCCCNc1cc(-c2ccnc(Nc3cccc(Cl)c3)n2)cc(C)n1 [Compound 42, N-(3-{4-[2-(3-Chloro-phenylamino)-pyrimidin-4-yl]-6-methyl-pyridin-2-ylamino}-propyl)-acetamide] | –
7 | < 5 | < 5 | < 5 | 15 to 50 | < 5 | – | CC(=O)NCCCNc1ncccc1-c1ccnc(Nc2cccc(S(N)(=O)=O)c2)n1 [Compound 68, N-(3-{3-[2-(3-Sulfamoyl-phenylamino)-pyrimidin-4-yl]-pyridin-2-ylamino}-propyl)-acetamide] | –
8 | 15 to 50 | 15 to 50 | < 5 | 15 to 50 | 5 to 15 | – | CC(=O)NCCCOc1ncccc1-c1ccnc(Nc2cccc(Cl)c2)n1 [Compound 121, N-(3-{3-[2-(3-Chloro-phenylamino)-pyrimidin-4-yl]-pyridin-2-yloxy}-propyl)-acetamide] | –
9 | < 5 | < 5 | < 5 | 15 to 50 | < 5 | – | NS(=O)(=O)c1cccc(Nc2nccc(-c3cccnc3NCCCn3ccnc3)n2)c1 [Compound 83, 3-{4-[2-(3-Imidazol-1-yl-propylamino)-pyridin-3-yl]-pyrimidin-2-ylamino}-benzenesulfonamide] | –
10 | < 5 | < 5 | < 5 | 15 to 50 | < 5 | – | Cc1cnccc1-c1ccnc(Nc2cccc(Cl)c2)n1 [Compound 44, (3-Chloro-phenyl)-[4-(3-methyl-pyridin-4-yl)-pyrimidin-2-yl]-amine] | –
11 | < 5 | – | < 5 | – | < 5 | 15 to 50 | CCCCNS(=O)(=O)c1cccc(Nc2nccc(-c3cccnc3OC)n2)c1 [Compound 102, N-Butyl-3-[4-(2-methoxy-pyridin-3-yl)-pyrimidin-2-ylamino]-benzenesulfonamide] | –
12 | > 50 | 5 to 15 | > 50 | 15 to 50 | > 50 | – | CCN(CC)S(=O)(=O)c1cccc(Nc2nccc(-c3cccnc3OC)n2)c1 [Compound 105, N,N-Diethyl-3-[4-(2-methoxy-pyridin-3-yl)-pyrimidin-2-ylamino]-benzenesulfonamide] | –
13 | < 5 | < 5 | < 5 | 5 to 15 | < 5 | – | CN(C)CCCNc1ncccc1-c1ccnc(Nc2cccc(Cl)c2)n1 [Compound 63, N-{3-[2-(3-Chloro-phenylamino)-pyrimidin-4-yl]-pyridin-2-yl}-N′,N′-dimethyl-propane-1,3-diamine] | –
14 | < 5 | < 5 | < 5 | < 5 | 5 to 15 | – | COc1cnccc1-c1nc(Nc2cccc(S(N)(=O)=O)c2)ncc1C [Compound 47, 3-[4-(3-Methoxy-pyridin-4-yl)-5-methyl-pyrimidin-2-ylamino]-benzenesulfonamide] | –
15 | 5 to 15 | – | < 5 | – | 5 to 15 | – | CC(C)(C)C(=O)NCCCNc1ncccc1-c1ccnc(Nc2cccc(Cl)c2)n1 [Compound 70, N-(3-{3-[2-(3-Chloro-phenylamino)-pyrimidin-4-yl]-pyridin-2-ylamino}-propyl)-2,2-dimethyl-propionamide] | –
16 | < 5 | – | < 5 | – | < 5 | – | CCOC(=O)c1cccc(Nc2nccc(-c3cccnc3OC)n2)c1 [Compound 108, 3-[4-(2-Methoxy-pyridin-3-yl)-pyrimidin-2-ylamino]-benzoic acid ethyl ester] | –
17 | < 5 | – | < 5 | – | 5 to 15 | – | Clc1cccc(Nc2nccc(-c3cccnc3NCCCN3CCOCC3)n2)c1 [Compound 78, (3-Chloro-phenyl)-{4-[2-(3-morpholin-4-yl-propylamino)-pyridin-3-yl]-pyrimidin-2-yl}-amine] | –
18 | > 50 | – | > 50 | – | > 50 | – | COc1ncccc1-c1ccnc(Nc2cccc(C3CCN(C(=O)OC(C)(C)C)CC3)c2)n1 [Compound 114, 4-{3-[4-(2-Methoxy-pyridin-3-yl)-pyrimidin-2-ylamino]-phenyl}-piperidine-1-carboxylic acid tert-butyl ester] | –
19 | > 50 | – | > 50 | – | > 50 | – | COc1ncccc1-c1ccnc(Nc2ccncc2)n1 [Compound 89] | –
20 | < 5 | < 5 | < 5 | 5 to 15 | < 5 | – | CC(C)NCCCNc1ncccc1-c1ccnc(Nc2cccc(Cl)c2)n1 [Compound 64, N-{3-[2-(3-Chloro-phenylamino)-pyrimidin-4-yl]-pyridin-2-yl}-N′-isopropyl-propane-1,3-diamine] | –
21 | < 5 | – | < 5 | – | < 5 | – | O=C1CCCN1CCCNc1ncccc1-c1ccnc(Nc2cccc(Cl)c2)n1 [Compound 77, 1-(3-{3-[2-(3-Chloro-phenylamino)-pyrimidin-4-yl]-pyridin-2-ylamino}-propyl)-pyrrolidin-2-one] | –
22 | < 5 | < 5 | < 5 | < 5 | 5 to 15 | – | COc1ncccc1-c1ccnc(Nc2ccc(N3CCN(C)CC3)cc2)n1 [Compound 117, [4-(2-Methoxy-pyridin-3-yl)-pyrimidin-2-yl]-[4-(4-methyl-piperazin-1-yl)-phenyl]-amine] | –
23 | < 5 | – | < 5 | – | < 5 | – | COc1ncccc1-c1ccnc(Nc2cccc(NC(C)=O)c2)n1 [Compound 98, N-{3-[4-(2-Methoxy-pyridin-3-yl)-pyrimidin-2-ylamino]-phenyl}-acetamide] | –
24 | < 5 | – | < 5 | – | 5 to 15 | – | COc1ncccc1-c1ccnc(Nc2cccc(-c3nncn3C)c2)n1 [Compound 111, [4-(2-Methoxy-pyridin-3-yl)-pyrimidin-2-yl]-[3-(4-methyl-4H-[1,2,4]triazo1-3-yl)-phenyl]-amine] | –
25 | < 5 | – | < 5 | – | < 5 | – | Nc1cnccc1-c1ccnc(Nc2cccc(Cl)c2)n1 [Compound 1, [4-(3-Amino-pyridin-4-yl)-pyrimidin-2-yl]-(3-chloro-phenyl)-amine] | –

Row | SMILES | IC50 [1] [µM] | IC50 [2] [µM] | IC50 [3] [µM] | IC50 [4] [µM] | IC50 ([5]; read-out: CDK1 IC50) [µM] | IC50 [6] [µM] | IC50 [5] [µM]
26 | COc1ncccc1-c1ccnc(Nc2ccc3cn[nH]c3c2)n1 [Compound 112, (1H-Indazol-6-yl)-[4-(2-methoxy-pyridin-3-yl)-pyrimidin-2-yl]-amine] | < 5 | – | < 5 | – | – | < 5 | < 5
